Measured values as given in ChEMBL document CHEMBL1201862, “PubChem BioAssay data set” (2004).
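Cultured in 96-well plates, cells were exposed to test compound for 48 hours across five concentrations. Abbreviation: GI50, concentration required for 50% inhibition of growth.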 Activity calls are given as the source filed them. Cut-off read from the data, not from the text of the source: active = GI50 up to about 1.1 µM and inactive = higher.

Legend:
Assay in all cases: growth of human tumour cells (NCI), 48 h
[1] = tested on: T47D
[2] = tested on: SK-MEL-2
[3] = tested on: MDA-N
[4] = tested on: NCI-H460
[5] = tested on: MCF7
[6] = tested on: SK-OV-3
[7] = tested on: NCI/ADR-RES
[8] = tested on: SN12C
[9] = tested on: NCI-H522
[10] = tested on: A549
[11] = tested on: K562
[12] = tested on: Malme-3M
[13] = tested on: TK-10
[14] = tested on: OVCAR-8
[15] = tested on: HCT-15
[16] = tested on: CCRF-CEM
[17] = tested on: BT-549
[18] = tested on: A498
[19] = tested on: MOLT-4

SMILES | GI50 [1] | GI50 [2] | GI50 [3] | GI50 [4] | GI50 [5] | GI50 [6] | GI50 [7] | GI50 [8] | GI50 [9] | GI50 [10] | GI50 [11] | GI50 [12] | GI50 [13] | GI50 [14] | GI50 [15] | GI50 [16] | GI50 [17] | GI50 [18] | GI50 [19]
S=C1NCN2CCN(CC2)CNC(=S)C(=S)NCN2CCN(CC2)CNC1=S | > 100 µM (inactive) | 43.2 µM (inactive) | 67.8 µM (inactive) | 20.7 µM (inactive) | 54.5 µM (inactive) | > 100 µM (inactive) | 67.5 µM (inactive) | 44.5 µM (inactive) | 31 µM (inactive) | 36.8 µM (inactive) | 27.3 µM (inactive) | > 100 µM (inactive) | > 100 µM (inactive) | 31.8 µM (inactive) | 31.3 µM | 18.5 µM (inactive) | 59 µM (inactive) | > 100 µM (inactive) | –
CCOC(=O)[C@@]12NN=N[C@@H]1[C@H]1CO[C@H](c3ccccc3)N1C2=O | 5.22 µM (inactive) | 7.21 µM (inactive) | 11.1 µM (inactive) | 4.44 µM (inactive) | 6.34 µM (inactive) | 18.2 µM (inactive) | 22.1 µM (inactive) | 11.1 µM (inactive) | 3.01 µM (inactive) | 16.9 µM (inactive) | – | 13.3 µM (inactive) | 16.8 µM (inactive) | 5.68 µM (inactive) | 6.62 µM | 7.1 µM (inactive) | 11.7 µM (inactive) | 10.6 µM (inactive) | 5.33 µM (inactive)
CC(=O)NNc1nc(C)c(C(=O)/C=C/C=C/c2ccccc2)s1 | 33.2 µM (inactive) | – | > 100 µM (inactive) | > 100 µM (inactive) | > 100 µM (inactive) | > 100 µM (inactive) | 70.6 µM (inactive) | > 100 µM (inactive) | 61.9 µM (inactive) | – | – | > 100 µM (inactive) | > 100 µM (inactive) | > 100 µM (inactive) | > 100 µM | 61.2 µM (inactive) | > 100 µM (inactive) | > 100 µM (inactive) | 56.1 µM (inactive)
O[C@@H]1C=C[C@]23CCN(Cc4cc5c(cc42)OCO5)[C@@H]3C1 | 39.1 µM (inactive) | 31.3 µM (inactive) | 69.3 µM (inactive) | 42.7 µM (inactive) | 52.1 µM (inactive) | > 100 µM (inactive) | > 100 µM (inactive) | 32.7 µM (inactive) | 82.4 µM (inactive) | 46.6 µM (inactive) | > 100 µM (inactive) | > 100 µM (inactive) | 49.8 µM (inactive) | 54.1 µM (inactive) | > 100 µM | 48.9 µM (inactive) | > 100 µM (inactive) | > 100 µM (inactive) | 61.1 µM (inactive)
C[N+](C)(C)CC1CCCCCCCCCCC1=O (configuration not stated) | > 100 µM (inactive) | > 100 µM (inactive) | > 100 µM (inactive) | > 100 µM (inactive) | > 100 µM (inactive) | > 100 µM (inactive) | > 100 µM (inactive) | > 100 µM (inactive) | > 100 µM (inactive) | > 100 µM (inactive) | > 100 µM (inactive) | > 100 µM (inactive) | > 100 µM (inactive) | > 100 µM (inactive) | > 100 µM | > 100 µM (inactive) | > 100 µM (inactive) | > 100 µM (inactive) | > 100 µM (inactive)
CC(=O)O[C@H]1CC[C@@H](OC(C)=O)[C@H]2[C@H](O)[C@H](O)[C@@H]1n1c(=O)n(-c3ccccc3)c(=O)n12 | > 100 µM (inactive) | > 100 µM (inactive) | > 100 µM (inactive) | – | > 100 µM (inactive) | – | > 100 µM (inactive) | > 100 µM (inactive) | > 100 µM (inactive) | > 100 µM (inactive) | > 100 µM (inactive) | > 100 µM (inactive) | > 100 µM (inactive) | > 100 µM (inactive) | > 100 µM | > 100 µM (inactive) | > 100 µM (inactive) | > 100 µM (inactive) | > 100 µM (inactive)
CC(=O)OC[C@@]1(C)[C@@H]2[C@@H]3[C@@]4(CO[C@]3(C)C(=O)[C@@]3(OC(C)=O)C[C@H](C)[C@H](OC(C)=O)[C@@H]3[C@H]4OC(C)=O)[C@H](OC(=O)c3ccccc3)C[C@@H]21 | 66.2 µM (inactive) | > 100 µM (inactive) | > 100 µM (inactive) | 59 µM (inactive) | 81.8 µM (inactive) | > 100 µM (inactive) | > 100 µM (inactive) | > 100 µM (inactive) | > 100 µM (inactive) | 74.1 µM (inactive) | 24 µM (inactive) | > 100 µM (inactive) | > 100 µM (inactive) | > 100 µM (inactive) | > 100 µM | 32.8 µM (inactive) | > 100 µM (inactive) | > 100 µM (inactive) | –
Nc1sccc1S(=O)(=O)c1ccsc1N | > 100 µM (inactive) | > 100 µM (inactive) | > 100 µM (inactive) | > 100 µM (inactive) | > 100 µM (inactive) | > 100 µM (inactive) | > 100 µM (inactive) | > 100 µM (inactive) | > 100 µM (inactive) | > 100 µM (inactive) | – | > 100 µM (inactive) | > 100 µM (inactive) | > 100 µM (inactive) | > 100 µM | – | > 100 µM (inactive) | > 100 µM (inactive) | > 100 µM (inactive)
